Data taken from patent US20020137929A1, “1 - (3-heterocyclylphenyl) isothiourea, -isourea, -guanidine and -amidine herbicidal agents” (Intellectual Property Department, BASF Aktiengesellschaft, priority 1998, published 2002).

Columns and labels:
GALAP (Galium) = assay: Postemergence herbicidal evaluation; format: in vivo, Galium aparine; settings: postemergence
Outline: (§1)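 Two-week seedlings sprayed postemergence at 40 psi; formulation: 1:1 acetone/water, 0.5% TWEEN 20; application ≈0.0156–0.500 kg/ha. Greenhouse grow-out, then 0–9 visual scoring at 4–5 weeks.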

[1] = tested on: CHEAL (Lambsquarters, Common); assay: Preemergence herbicidal evaluation; format: in vivo, Chenopodium album; settings: rated 4-5 weeks after treatment
Outline: (§2)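 Test compound, dissolved in aqueous acetone, was sprayed over planted soil cups at an equivalent of about 0.0156 to 0.500 kg/ha; seeds had been mixed with potting soil. Greenhouse growth followed, with visual 0-9 scoring of injury at four to five weeks.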

[2] = tested on: IPOHE (Morningglory, Ivyleaf); assay: Preemergence herbicidal evaluation; format: in vivo, Ipomoea hederacea; settings: rated 4-5 weeks after treatment
Outline: as §2

AMBEL (Ragweed, Common) = assay: Preemergence herbicidal evaluation; format: in vivo, Ambrosia artemisifolia; settings: rated 4-5 weeks after treatment
Outline: as §2

ORYSAT (Rice, Tebonnet) = assay: Preemergence herbicidal evaluation; format: in vivo, Oryza sativa, (L.) Tebonnet; settings: rated 4-5 weeks after treatment
Outline: as §2

CASOB (Sicklepod) = assay: Postemergence herbicidal evaluation; format: in vivo, Cassia obtusifolia; settings: postemergence
Outline: as §1

[3] = tested on: TRZAWR (Wheat, Winter, cv Riband); assay: Preemergence herbicidal evaluation; format: in vivo, Triticum aestivum; settings: rated 4-5 weeks after treatment
Outline: as §2

ZEAMX (Corn, Field) [4] = assay: Preemergence herbicidal evaluation; format: in vivo, Zea mays; settings: rated 4-5 weeks after treatment
Outline: as §2

[5] = tested on: ECHORC (Watergrass (Calif.)); assay: Preemergence weed control under flooded paddy conditions; format: in vivo, Echinochloa oryzoides; settings: rated 3-4 weeks after treatment
Outline: (§3)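 First, seeds or propagules go into the top 0.5 cm of silt loam; next, water is held 1.5 to 3 cm over the soil; then compound (50/50 acetone/water) is pipetted into it at about 0.0313 to 0.500 kg/ha; finally plants are rated visually 0-9 after three to four weeks.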

[6] = tested on: ECHORC (Watergrass (Calif.)); assay: Postemergence weed control under flooded paddy conditions; format: in vivo, Echinochloa oryzoides; settings: postemergence weeds
Outline: (§4)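 Injury ratings (0–9 scale covering stand, vigor, malformation, size, chlorosis and overall appearance versus control) were made three to four weeks after treatment. Test material, about 0.0313 to 0.500 kg/ha a.i. in 50/50 v/v aqueous/acetone, was added to flood water 1.5 to 3 cm deep over 3 to 5 cm weeds and 1.5 to 2.5 leaf rice.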

CYPIR (Rice Flatsedge) = assay: Preemergence weed control under flooded paddy conditions; format: in vivo, Cyperus iria; settings: rated 3-4 weeks after treatment
Outline: as §3

CYPSE (Flatsedge) [7] = assay: as above; format: in vivo, Cyperus serotinus; settings: rated 3-4 weeks after treatment
Outline: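 Flooded-pot preemergence screen with silt loam and seeds in the upper 0.5 cm. Dose about 0.0313 to 0.500 kg/ha, delivered into flood water; visual 0-9 score after 3 to 4 weeks.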

ZEAMX (Corn, Field) [8] = assay: Postemergence herbicidal evaluation; format: in vivo, Zea mays; settings: postemergence
Outline: as §1

CYPSE (Flatsedge) [9] = assay: Postemergence weed control under flooded paddy conditions; format: in vivo, Cyperus serotinus; settings: postemergence weeds
Outline: as §4

[10] = rate 0.1160 kg/ha, 3-4 weeks after treatment
[11] = rate 0.2310 kg/ha, 3-4 weeks after treatment
[12] = rate 0.4630 kg/ha, 3-4 weeks after treatment
[13] = Rate 0.0313 kg/ha, rated 3 to 4 weeks after treatment
[14] = Rate 0.0625 kg/ha, rated 3 to 4 weeks after treatment
[15] = Rate 0.1250 kg/ha, rated 3 to 4 weeks after treatment
[16] = Rate 0.2500 kg/ha, rated 3 to 4 weeks after treatment

CN(C)N1C(=O)CSC1=Nc1cc(-n2c(=O)cc(C(F)(F)F)n(C)c2=O)c(F)cc1Cl [Compound 23, 3-{4-Chloro-5-{[3-(dimethylamino)-4-oxo-2-thiazolidinylidine]amino}-2-fluorophenyl}-1-methyl-6-(trifluoromethyl)-2,4(1H,3H)-pyrimidinedione]
GALAP herbicidal rating (GALAP (Galium); rate 0.0158 kg/ha): 3.0
GALAP herbicidal rating (GALAP (Galium); rate 0.0315 kg/ha): 7.0
GALAP herbicidal rating (GALAP (Galium); rate 0.0630 kg/ha): 9.0
CHEAL preemergence herbicidal rating ([1]; rate 0.0156 kg/ha): 0.0
CHEAL preemergence herbicidal rating ([1]; rate 0.0313 kg/ha): 1.0
CHEAL preemergence herbicidal rating ([1]; rate 0.0625 kg/ha): 7.0
CHEAL preemergence herbicidal rating ([1]; rate 0.1250 kg/ha): 9.0
CHEAL preemergence herbicidal rating ([1]; rate 0.2500 kg/ha): 9.0
IPOHE preemergence herbicidal rating ([2]; rate 0.0156 kg/ha): 0.0
IPOHE preemergence herbicidal rating ([2]; rate 0.0313 kg/ha): 0.0
IPOHE preemergence herbicidal rating ([2]; rate 0.0625 kg/ha): 1.0
IPOHE preemergence herbicidal rating ([2]; rate 0.1250 kg/ha): 5.0
IPOHE preemergence herbicidal rating ([2]; rate 0.2500 kg/ha): 9.0
AMBEL preemergence herbicidal rating (AMBEL (Ragweed, Common); rate 0.0156 kg/ha): 0.0
AMBEL preemergence herbicidal rating (AMBEL (Ragweed, Common); rate 0.0313 kg/ha): 0.0
AMBEL preemergence herbicidal rating (AMBEL (Ragweed, Common); rate 0.0625 kg/ha): 3.0
AMBEL preemergence herbicidal rating (AMBEL (Ragweed, Common); rate 0.1250 kg/ha): 6.0
AMBEL preemergence herbicidal rating (AMBEL (Ragweed, Common); rate 0.2500 kg/ha): 7.0
ORYSAT preemergence herbicidal rating (ORYSAT (Rice, Tebonnet); rate 0.0156 kg/ha): 0.0
ORYSAT preemergence herbicidal rating (ORYSAT (Rice, Tebonnet); rate 0.0313 kg/ha): 0.0
ORYSAT preemergence herbicidal rating (ORYSAT (Rice, Tebonnet); rate 0.0625 kg/ha): 1.0
ORYSAT preemergence herbicidal rating (ORYSAT (Rice, Tebonnet); rate 0.1250 kg/ha): 1.0
ORYSAT preemergence herbicidal rating (ORYSAT (Rice, Tebonnet); rate 0.2500 kg/ha): 7.0
CASOB herbicidal rating (CASOB (Sicklepod); rate 0.0158 kg/ha): 0.0
CASOB herbicidal rating (CASOB (Sicklepod); rate 0.0315 kg/ha): 1.0
CASOB herbicidal rating (CASOB (Sicklepod); rate 0.0630 kg/ha): 3.0
TRZAWR preemergence herbicidal rating ([3]; rate 0.0156 kg/ha): 0.0
TRZAWR preemergence herbicidal rating ([3]; rate 0.0313 kg/ha): 0.0
TRZAWR preemergence herbicidal rating ([3]; rate 0.0625 kg/ha): 1.0
TRZAWR preemergence herbicidal rating ([3]; rate 0.1250 kg/ha): 5.0
TRZAWR preemergence herbicidal rating ([3]; rate 0.2500 kg/ha): 7.0
ZEAMX preemergence herbicidal rating (ZEAMX (Corn, Field) [4]; rate 0.0156 kg/ha): 0.0
ZEAMX preemergence herbicidal rating (ZEAMX (Corn, Field) [4]; rate 0.0313 kg/ha): 1.0
ZEAMX preemergence herbicidal rating (ZEAMX (Corn, Field) [4]; rate 0.0625 kg/ha): 2.0
ZEAMX preemergence herbicidal rating (ZEAMX (Corn, Field) [4]; rate 0.1250 kg/ha): 5.0
ZEAMX preemergence herbicidal rating (ZEAMX (Corn, Field) [4]; rate 0.2500 kg/ha): 7.0
Herbicidal rating ECHORC ([5]; 0.1160 kg/ha): 4.0
Herbicidal rating ECHORC ([5]; 0.2310 kg/ha): 4.0
Herbicidal rating ECHORC ([5]; 0.4630 kg/ha): 4.0
Herbicidal rating ECHORC [6, 10]: 4.0
Herbicidal rating ECHORC [6, 11]: 4.0
Herbicidal rating ECHORC [6, 12]: 4.0
Herbicidal rating CYPIR (CYPIR (Rice Flatsedge); 0.1160 kg/ha): 0.0
Herbicidal rating CYPIR (CYPIR (Rice Flatsedge); 0.2310 kg/ha): 0.0
Herbicidal rating CYPIR (CYPIR (Rice Flatsedge); 0.4630 kg/ha): 0.0
Herbicidal rating CYPSE (CYPSE (Flatsedge) [7]; 0.1160 kg/ha): 0.0
Herbicidal rating CYPSE (CYPSE (Flatsedge) [7]; 0.2310 kg/ha): 0.0
Herbicidal rating CYPSE (CYPSE (Flatsedge) [7]; 0.4630 kg/ha): 0.0
ZEAMX herbicidal rating (ZEAMX (Corn, Field) [8]; rate 0.0158 kg/ha): 3.0
ZEAMX herbicidal rating (ZEAMX (Corn, Field) [8]; rate 0.0315 kg/ha): 3.5
ZEAMX herbicidal rating (ZEAMX (Corn, Field) [8]; rate 0.0630 kg/ha): 5.0
Herbicidal rating CYPSE (CYPSE (Flatsedge) [9]; [10]): 0.0
Herbicidal rating CYPSE (CYPSE (Flatsedge) [9]; [11]): 0.0
Herbicidal rating CYPSE (CYPSE (Flatsedge) [9]; [12]): 0.0

COC(=O)[C@@H](Cc1ccccc1)N1C(=O)CSC1=Nc1cc(-n2c(=O)cc(C(F)(F)F)n(C)c2=O)c(F)cc1Cl [Compound 74, Methyl α-benzyl-2-{{2-chloro-5-[3,6-dihydro-3-methyl-2,6-dioxo-4-(trifluoromethyl)-1(2H)-pyrimidinyl]-4-fluorophenyl}imino}-4-oxo-3-thiazolidineacetate, D-]
GALAP herbicidal rating (GALAP (Galium); rate 0.0158 kg/ha): 1.0
GALAP herbicidal rating (GALAP (Galium); rate 0.0315 kg/ha): 4.0
GALAP herbicidal rating (GALAP (Galium); rate 0.0630 kg/ha): 9.0
Preemergence herbicidal rating CHEAL ([1]; rate 0.0156 kg/ha): 9.0
Preemergence herbicidal rating CHEAL ([1]; rate 0.0313 kg/ha): 9.0
Preemergence herbicidal rating CHEAL ([1]; rate 0.0625 kg/ha): 9.0
Preemergence herbicidal rating CHEAL ([1]; rate 0.1250 kg/ha): 9.0
Preemergence herbicidal rating CHEAL ([1]; rate 0.2500 kg/ha): 9.0
Preemergence herbicidal rating IPOHE ([2]; rate 0.0156 kg/ha): 0.0
Preemergence herbicidal rating IPOHE ([2]; rate 0.0625 kg/ha): 1.0
Preemergence herbicidal rating IPOHE ([2]; rate 0.1250 kg/ha): 0.0
Preemergence herbicidal rating IPOHE ([2]; rate 0.2500 kg/ha): 1.0
Preemergence herbicidal rating AMBEL (AMBEL (Ragweed, Common); rate 0.0156 kg/ha): 0.0
Preemergence herbicidal rating AMBEL (AMBEL (Ragweed, Common); rate 0.0313 kg/ha): 1.0
Preemergence herbicidal rating AMBEL (AMBEL (Ragweed, Common); rate 0.0625 kg/ha): 3.0
Preemergence herbicidal rating AMBEL (AMBEL (Ragweed, Common); rate 0.1250 kg/ha): 9.0
Preemergence herbicidal rating AMBEL (AMBEL (Ragweed, Common); rate 0.2500 kg/ha): 9.0
Preemergence herbicidal rating ORYSAT (ORYSAT (Rice, Tebonnet); rate 0.0156 kg/ha): 0.0
Preemergence herbicidal rating ORYSAT (ORYSAT (Rice, Tebonnet); rate 0.0313 kg/ha): 0.0
Preemergence herbicidal rating ORYSAT (ORYSAT (Rice, Tebonnet); rate 0.0625 kg/ha): 1.0
Preemergence herbicidal rating ORYSAT (ORYSAT (Rice, Tebonnet); rate 0.1250 kg/ha): 1.0
Preemergence herbicidal rating ORYSAT (ORYSAT (Rice, Tebonnet); rate 0.2500 kg/ha): 1.0
CASOB herbicidal rating (CASOB (Sicklepod); rate 0.0158 kg/ha): 3.0
CASOB herbicidal rating (CASOB (Sicklepod); rate 0.0315 kg/ha): 4.0
CASOB herbicidal rating (CASOB (Sicklepod); rate 0.0630 kg/ha): 9.0
Preemergence herbicidal rating TRZAWR ([3]; rate 0.0156 kg/ha): 0.0
Preemergence herbicidal rating TRZAWR ([3]; rate 0.0313 kg/ha): 0.0
Preemergence herbicidal rating TRZAWR ([3]; rate 0.0625 kg/ha): 1.0
Preemergence herbicidal rating TRZAWR ([3]; rate 0.1250 kg/ha): 1.0
Preemergence herbicidal rating TRZAWR ([3]; rate 0.2500 kg/ha): 1.0
Preemergence herbicidal rating ZEAMX (ZEAMX (Corn, Field) [4]; rate 0.0156 kg/ha): 0.0
Preemergence herbicidal rating ZEAMX (ZEAMX (Corn, Field) [4]; rate 0.0313 kg/ha): 0.0
Preemergence herbicidal rating ZEAMX (ZEAMX (Corn, Field) [4]; rate 0.0625 kg/ha): 0.0
Preemergence herbicidal rating ZEAMX (ZEAMX (Corn, Field) [4]; rate 0.1250 kg/ha): 1.0
Preemergence herbicidal rating ZEAMX (ZEAMX (Corn, Field) [4]; rate 0.2500 kg/ha): 1.0
ECHORC herbicidal effect rating ([5]; 0.0313 kg/ha): 7.0
ECHORC herbicidal effect rating ([5]; 0.0625 kg/ha): 9.0
ECHORC herbicidal effect rating ([5]; 0.1250 kg/ha): 9.0
ECHORC herbicidal effect rating ([5]; 0.2500 kg/ha): 9.0
Herbicidal rating ECHORC [6, 13]: 7.0
Herbicidal rating ECHORC [6, 14]: 9.0
Herbicidal rating ECHORC [6, 15]: 9.0
Herbicidal rating ECHORC [6, 16]: 9.0
CYPIR herbicidal effect rating (CYPIR (Rice Flatsedge); 0.0313 kg/ha): 0.0
CYPIR herbicidal effect rating (CYPIR (Rice Flatsedge); 0.0625 kg/ha): 0.0
CYPIR herbicidal effect rating (CYPIR (Rice Flatsedge); 0.1250 kg/ha): 0.0
CYPIR herbicidal effect rating (CYPIR (Rice Flatsedge); 0.2500 kg/ha): 0.0
CYPSE herbicidal effect rating (CYPSE (Flatsedge) [7]; 0.0313 kg/ha): 0.0
CYPSE herbicidal effect rating (CYPSE (Flatsedge) [7]; 0.0625 kg/ha): 5.0
CYPSE herbicidal effect rating (CYPSE (Flatsedge) [7]; 0.1250 kg/ha): 5.0
CYPSE herbicidal effect rating (CYPSE (Flatsedge) [7]; 0.2500 kg/ha): 9.0
ZEAMX herbicidal rating (ZEAMX (Corn, Field) [8]; rate 0.0158 kg/ha): 4.5
ZEAMX herbicidal rating (ZEAMX (Corn, Field) [8]; rate 0.0315 kg/ha): 5.0
ZEAMX herbicidal rating (ZEAMX (Corn, Field) [8]; rate 0.0630 kg/ha): 5.5
Herbicidal rating CYPSE (CYPSE (Flatsedge) [9]; [13]): 0.0
Herbicidal rating CYPSE (CYPSE (Flatsedge) [9]; [14]): 5.0
Herbicidal rating CYPSE (CYPSE (Flatsedge) [9]; [15]): 5.0
Herbicidal rating CYPSE (CYPSE (Flatsedge) [9]; [16]): 9.0
